Measurements taken from US20040127468A1, “Methods and compositions for treating apoptosis associated disorders” (priority 2001, published 2004).

Assays:
[1] = system: cerebellar granule neurons; test: Survival of cerebellar granule neurons after glutamate (counting intact nuclei); assay type: cell-based, rat; details: apoptosis initiating insult: Glutamate
Description: (§1) Cerebellar granule neurons were obtained from postnatal day 7 rat pups by enzymatic digestion and maintained in serum supplemented Eagle's Basal medium. Viable cells were plated at a density of 500,000 cells/ml onto poly-L-lysine coated tissue culture plastic or glass coverslips. Cytosine arabinoside (Ara-C) (10 μM) was added at 24 hours to halt glial proliferation. To induce apoptosis in the cerebellar granule neurons, 10^−4 to 10^−6 M glutamate was added on day 7 to the culture.
Both cell survival and the percentages of cells with evidence of apoptotic nuclear degradation were assessed for all treatments. […] Intact nuclei were counted using a hemocytometer (see see (Tatton et al., 1994, J. Neurochemistry, 63:1572-1575; Wadia et al., J. Neuroscience, 1998, 18: 932-947; Carlile et al., 2000, Molecular Pharmacology, 57:2-12) for details of treatment and counting methods).
(§2) The capacity of phosphatidic acid to increase survival, decrease apoptosis and maintain mitochondrial membrane potential was determined by counting intact nuclei as an indicator of cell survival, determining the percentages of cells with nuclear chromatin (DNA) condensation by staining cells with YOYO-1, a nucleic acid binding dye, and measuring mitochondrial potentiometric dye fluorescence by imaging them with florescence microscopy.

[2] = system: NGF differentiated PC12 cells; test: Nuclei with chromatin condensation (YOYO-1 staining) in NGF differentiated PC12 cells; assay type: cell-based
Description: PC12 cells (ATCC, Manassas, Md.) were propagated in minimum essential medium (MEM) containing 10% horse serum, 5% fetal bovine serum, 2 mM L-glutamine, 50 units/ml penicillin, and 50 μg/ml streptomycin (MEM with serum, MIS), all purchased from Life Technologies (Rockville, Md.). The cells were grown on 24 well plates (8×10^4 cells/well) for counting of intact nuclei as an estimate of survival, poly-L-lysine treated coverslips (1×10^4 cells/coverslip) for imaging with epiflorescence microscopy or laser confocal scanning microscopy (LCSM) or 100 mm dishes (1×10^6 cells/plate) for protein chemistry. The cells were differentiated for 6 days in M/S supplemented with 100 ng/ml 7S NGF (Upstate Biotech., Lake Placid, N.Y.). MEM with serum and NGF is abbreviated as M/S+N (see (Tatton et al., 1994, J. Neurochemistry, 63:1572-1575; Wadia et al., J. Neuroscience, 1998, 18: 932-947; Carlile et al., 2000, Molecular Pharmacology, 57:2-12) for further details of culture and treatment). […]
(§3) Percentages of cells with apoptotic nuclei were determined for cells grown on poly-L-lysine treated coverslips (density 1×10^4/coverslip). […] The total number of YOYO-1 stained nuclei with chromatin condensation were counted on twenty-five 40× fields for each coverslip, each field chosen by pairs of randomly-generated x-y coordinates. The proportion of nuclei with chromatin condensation were expressed as a percentage of the total number of cells in each field. […]
as §2

[3] = system: NGF differentiated PC12 cells; test: Mitochondrial membrane potential by potentiometric dye fluorescence (TMRM, CMTMR) in NGF differentiated PC12 cells; assay type: cell-based
Description: Live cell ΔψM measurement: Cells on polylysine coated coverglass were incubated with 100 nM tetramethylrodaminemethylester (TMRM, Molecular probes, Eugene, Oreg.) or 10 μg/ml JC-1 (Molecular Probes, Eugene, Oreg.) to provide an estimate of ΔψM. The coverslips were transferred to a gas and temperature controlled circulating live cell chamber (Medical Systems Corp., Greenvale, N.Y.). A thermocoupler immersed in the medium maintained the media temperature at 37±0.1° C. TMRM, JC-1 and chloromethyltetramethylrosamine (CMTMR, Molecular probes, Eugene, Oreg.) and JC-1 stained cells were imaged 10 minutes following dye addition and images were collected every 3 minutes for approximately 20 minutes.
Fixed cell ΔψM Measurement. After treatment of NGF differentiated PC12 cells on poly-L-lysine coated 12 mm coverslips, the fixable potentiometric dye, CMTMR, was added at 137 nM for 15 minutes at 37° C. and simultaneous immunocytochemistry was performed. The cells were then rinsed once with warm Dulbecco's PBS prior to overnight fixation with ice cold 4% paraformaldehyde in PB and mounted onto slides with the aqueous mounting medium, Aquamount (Gallard-Schlesinger Ind., Garden City, N.Y.).
Florescence Microscopy. Images were obtained using a Leica TCS4D confocal microscope coupled to an argon-krypton laser or a standard epi-floresence microscope. The images were scanned or imaged using an oil immersion 100×1.4 N.A. objective to minimize focal depth. CMTMR and TMRM treated cells were imaged using 568 nm excitation and detected with 600/30 nm band pass filter. The JC-1 incubated cells were imaged using 488 nm excitation and detected using 530/30 nm band pass and 590 nm long pass filters observed by separate detectors. Image resolution was 512×512×8 bits per pixel. […] To measure the intensity of mitochondrial potentiometric dye fluorescence, pixel intensity measurements from 20-40 mitochondria from each of 50-70 cells per treatment, per experiment were obtained by placing a 3×3 pixel box at 2 points in each mitochondrion. The fluorescence intensity values were automatically exported to an Excel spreadsheet for subsequent analysis in MicroCal Origin (Northampton, Mass.). […]
as §2

[4] = system: cerebellar granule neurons; test: Nuclei with chromatin condensation (YOYO-1 staining) in cerebellar granule neurons after glutamate; assay type: cell-based, rat; details: apoptosis initiating insult: Glutamate
Description: as §1, §3, §2

[5] = system: NGF differentiated PC12 cells; test: Survival of NGF differentiated PC12 cells after apoptosis initiating insult (counting intact nuclei); assay type: cell-based
Description: PC12 cells (ATCC, Manassas, Md.) were propagated in minimum essential medium (MEM) containing 10% horse serum, 5% fetal bovine serum, 2 mM L-glutamine, 50 units/ml penicillin, and 50 μg/ml streptomycin (MEM with serum, MIS), all purchased from Life Technologies (Rockville, Md.). The cells were grown on 24 well plates (8×10^4 cells/well) for counting of intact nuclei as an estimate of survival, poly-L-lysine treated coverslips (1×10^4 cells/coverslip) for imaging with epiflorescence microscopy or laser confocal scanning microscopy (LCSM) or 100 mm dishes (1×10^6 cells/plate) for protein chemistry. The cells were differentiated for 6 days in M/S supplemented with 100 ng/ml 7S NGF (Upstate Biotech., Lake Placid, N.Y.). MEM with serum and NGF is abbreviated as M/S+N (see (Tatton et al., 1994, J. Neurochemistry, 63:1572-1575; Wadia et al., J. Neuroscience, 1998, 18: 932-947; Carlile et al., 2000, Molecular Pharmacology, 57:2-12) for further details of culture and treatment). Serum and NGF Withdrawal: Following incubation for 6 days in MEM with serum and NGF, cells underwent three successive washes in Hanks' Balanced Salt Solution (HBSS; Life Technologies, Rockville, Md.) to remove NGF and serum-borne trophic agents and then were replaced into MEM with serum and NGF for controls or into MEM without serum and NGF to induce apoptosis by serum and NGF withdrawal. C2-Ceramide, Rotenone, Peroxide, and Atractyloside Exposure: After 6 days of exposure to serum and NGF, cultures maintained in MEM with serum and NGF were treated for 24 hours with either vehicle (HBSS) as a control, or concentrations of C2-ceramide in HBSS varying from 2 to 50 μM, concentrations of rotenone in BSS varying from 2 to 50 nM, concentrations of H2O2 in HBSS varying from 0.01 to 0.25 mM H2O2 or concentrations of atractyloside in HBSS varying from 2 to 20 mM. Both cell survival and the percentages of cells with evidence of apoptotic nuclear degradation were assessed for all treatments. To estimate survival, the cells were seeded at a density of 8×10^4 cells/well in 24 well plates. Cells were harvested 24 hours after treatment and lysed. Intact nuclei were counted using a hemocytometer (see see (Tatton et al., 1994, J. Neurochemistry, 63:1572-1575; Wadia et al., J. Neuroscience, 1998, 18: 932-947; Carlile et al., 2000, Molecular Pharmacology, 57:2-12) for details of treatment and counting methods). The capacity of phosphatidic acid to increase survival, decrease apoptosis and maintain mitochondrial membrane potential was determined by counting intact nuclei as an indicator of cell survival, determining the percentages of cells with nuclear chromatin (DNA) condensation by staining cells with YOYO-1, a nucleic acid binding dye, and measuring mitochondrial potentiometric dye fluorescence by imaging them with florescence microscopy.

[6] = apoptosis initiating insult: Serum and NGF Withdrawal

phosphatidic acid [PA]
PA Increases Survival [1]: Yes | PA Increases Survival ([1]; listed as Phosphatidic acid): increase cell survival | PA Decreases Nuclei With Chromatin Condensation ([2]; apoptosis initiating insult: Ceramide): Yes | PA Decreases Nuclei With Chromatin Condensation ([2]; apoptosis initiating insult: Rotenone): Yes | PA Decreases Nuclei With Chromatin Condensation [2, 6]: Yes | PA Reduces Decreases In Mitochondrial Membrane Potential ([3]; apoptosis initiating insult: Ceramide, dyes TMRM and CMTMR, listed as phosphatidic acid): reduces | PA Reduces Decreases In Mitochondrial Membrane Potential ([3]; apoptosis initiating insult: Rotenone, dyes TMRM and CMTMR): Yes - FIG. 4C | PA Reduces Decreases In Mitochondrial Membrane Potential ([3]; apoptosis initiating insult: Rotenone, dyes TMRM and CMTMR, listed as phosphatidic acid): reduces | PA Reduces Decreases In Mitochondrial Membrane Potential [3, 6]: Yes | PA Decreases Nuclei With Chromatin Condensation [4]: Yes | increase of cell survival by varying concentrations of phosphatidic acid ([5]; after exposure to 0.1 mM H2O2 which kills about 60% of the cells (FIG. 3C)): does not substantially increase | PA reduced apoptosis ([5]; apoptosis initiated by peroxide or atractyloside, 2 to 30 μM PA): not | PA Increases Survival ([5]; apoptosis initiating insult: Atractyloside, 24 hours): No | PA Increases Survival ([5]; apoptosis initiating insult: Ceramide (C2-ceramide), 24 hours): Yes - FIG. 2A | PA Increases Survival ([5]; apoptosis initiating insult: Ceramide (C2-ceramide), 24 hours, listed as Phosphatidic acid): increase cell survival | PA Increases Survival ([5]; apoptosis initiating insult: Peroxide (H2O2), 24 hours, listed as phosphatidic acid): does not alter survival | PA Increases Survival ([5]; apoptosis initiating insult: Rotenone, 24 hours, listed as Phosphatidic acid): increase cell survival | PA Increases Survival [5, 6]: Yes - FIG. 3B | PA Increases Survival ([5]; apoptosis initiating insult: Serum and NGF Withdrawal, listed as Phosphatidic acid): increase cell survival
